{
  "source": "patent US20030190396A1",
  "about": "“Methods and compositions for altering the sweetness delivery profile of sucralose” (priority 2002, published 2003)",
  "key": {"rats": {"tested_on": "rats", "conditions": "cited from earlier work"}, "[1]": {"conditions": "Roberts, J. Appl. Nutr. 1988; cited from earlier work"}, "[2]": {"assay": "Subcutaneous water retention in bodybuilders on a pre-competition diet (caliper test and visual inspection, Example 6)", "type": "in vivo, human", "conditions": "ten bodybuilders; 12-week pre-competition diet with this sweetener only; caliper test and muscle definition score twice weekly", "description": "This study was defined to determine whether the ingestion of sucralose results in reduced subcutaneous water retention compared to the water retention resulting from the ingestion of aspartame. Ten bodybuilders on a pre-competition diet were closely monitored. Prior to the pre-competition diet, the body fat and the weight of the ten bodybuilders were measured. Prior to this study, the participants in their normal diet refrained for one week from any products containing either sucralose or aspartame.\nIn the first phase of the study, during the 12-week pre-competition diet, the body builders consumed goods and liquids that were sweetened with aspartame only. Two methods for assessing subcutaneous water retention were used. […] As a second test, the subjective visual inspection was used, where the abdomen and overall body definition were visually inspected and photographed. As with the objective test, the subjects' muscle definition-value was determined twice weekly. A scale of 1 to 10 for muscle definition was used as an indicator for subcutaneous water retention, with a score of 10 indicating excellent muscle definition and 1 indicating poor definition. […]"}, "[3]": {"conditions": "in vivo; cited from earlier work"}},
  "note": "Where a SMILES comes first, the peptide text is derived from it.",
  "data": [
    {"smiles": "O=C1NS(=O)(=O)c2ccccc21", "note": "[Saccharin]", "values": [
      {"measurement": "risk of causing cancer", "setting": "rats", "result": "reported to be a risk in causing cancer in rats"}
    ]},
    {"smiles": "COC(=O)[C@H](Cc1ccccc1)NC(=O)[C@@H](N)CC(=O)O", "note": "[aspartame, N-L-α-aspartyl-L-phenylalanine methyl ester] (H-Asp-Phe-OMe)", "values": [
      {"measurement": "water retention within the body", "setting": "[1]", "result": "linked with excessive water retention within the body"},
      {"measurement": "subcutaneous water retention", "setting": "[2]", "result": "makes the body retain water"}
    ]},
    {"smiles": "OC[C@H]1O[C@H](O[C@]2(CCl)O[C@H](CCl)[C@@H](O)[C@@H]2O)[C@H](O)[C@@H](O)[C@H]1Cl", "note": "[sucralose, 4,1′,6′-trichloro-4,1′,6′-trideoxygalactosucrose]", "values": [
      {"measurement": "sweetness intensity relative to sucrose", "setting": "[3]", "result": "several hundred times that of sucrose"},
      {"measurement": "subcutaneous water retention", "setting": "[2]", "result": "This effect is reduced"}
    ]}
  ]
}
